In patent US11071731B2, “Allosteric modulators of the mu opioid receptor” (Chiromics, LLC, priority 2017, dated 2021):

Legend:
mu opioid receptor (MOR) [1] = molecular target: T1, mu opioid receptor (MOR) (Homo sapiens, UniProt P35372); test: PathHunter β-arrestin recruitment assay, PAM mode with EC20 endomorphin-1; format: cell-based; conditions: for β-arr Max. Resp.: maximal response for β-arrestin recruitment; for EC50: β-arrestin recruitment, read-out: β-arr. EC50
How it was run: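 Enzyme fragment complementation read-out: β-gal ED fragment fused to receptor, EA fused to β-arrestin, recruitment restoring β-gal activity detected by chemiluminescence. EC50 and percent maximal response derived for each compound.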

mu opioid receptor (MOR) [2] = molecular target: T1, mu opioid receptor (MOR); test: Hit Hunter cAMP signaling assay (adenylyl cyclase inhibition), PAM mode with EC20 endomorphin-1; format: cell-based; conditions: for cAMP Max. Resp.: maximal response for adenylyl cyclase inhibition
[3] = adenylyl cyclase inhibition, read-out: cAMP EC50
[4] = cAMP EC50, adenylyl cyclase inhibition

T1 sequence (P35372 whole entry, the tested form may be a part): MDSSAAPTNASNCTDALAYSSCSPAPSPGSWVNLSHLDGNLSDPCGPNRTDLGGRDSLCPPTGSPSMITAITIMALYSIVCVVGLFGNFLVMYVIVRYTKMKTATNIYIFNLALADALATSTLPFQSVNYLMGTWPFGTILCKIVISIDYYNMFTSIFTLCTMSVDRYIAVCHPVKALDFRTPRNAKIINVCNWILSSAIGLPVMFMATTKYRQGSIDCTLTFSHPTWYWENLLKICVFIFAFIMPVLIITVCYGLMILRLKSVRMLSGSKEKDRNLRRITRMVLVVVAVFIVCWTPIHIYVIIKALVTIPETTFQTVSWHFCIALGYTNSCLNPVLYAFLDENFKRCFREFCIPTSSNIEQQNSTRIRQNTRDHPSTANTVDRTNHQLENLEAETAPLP

| SMILES | β-arr Max. Resp. (mu opioid receptor (MOR) [1]) | EC50 (mu opioid receptor (MOR) [1]) [µM] | cAMP Max. Resp. (mu opioid receptor (MOR) [2]) | EC50 (mu opioid receptor (MOR) [2]; [3]) [µM] | EC50 (mu opioid receptor (MOR) [2]; [4]) [µM] | allosteric activity for β-arrestin recruitment (mu opioid receptor (MOR) [1]; EC20 endomorphin-1 concentration of 4.5 nM) | signaling preference β-arrestin vs cAMP (mu opioid receptor (MOR) [1]; comparison of β-arrestin and cAMP assays) | allosteric activity for cAMP signaling (mu opioid receptor (MOR) [2]; EC20 endomorphin-1 concentration of 0.45 nM) |
| --- | --- | --- | --- | --- | --- | --- | --- | --- |
| Oc1ncc(F)c(N2CCCCC2c2cccc(C(F)(F)F)c2)n1 (stereo not shown) [compound 350] | D (D represents a maximal response of < 40%) | < 0.7 | D (D represents a maximal response of < 40%) |  |  |  |  |  |
| Fc1ccc(C2CCCCN2c2nc(Cl)ncc2F)cc1Cl (single isomer, unassigned) [compound 346] | D (D represents a maximal response of < 40%) | < 0.7 | D (D represents a maximal response of < 40%) | < 0.7 |  |  |  |  |
| COc1ccc(C2COCCN2S(=O)(=O)c2ccc(Cl)cc2)cc1Br (racemic) [Compound 222] | F (F represents a maximal response of > 60%) | > 2.1 | D (D represents a maximal response of < 40%) | 0.7 to 2.1 |  |  |  |  |
| Cc1cnc(Cl)nc1N1CCCCC1c1cccc(C(F)(F)F)c1 (stereo not shown) [compound 265] | F (F represents a maximal response of > 60%) | > 2.1 | E (E represents a maximal response of 40-60%) |  | > 2.1 |  |  |  |
| COc1ccc(C2C(F)CCCN2c2nc(Cl)ncc2F)cc1Br (stereo not shown) [compound 212] | F (F represents a maximal response of > 60%) | > 2.1 | E (E represents a maximal response of 40-60%) |  | > 2.1 |  |  |  |
| COc1ccc(C2CCCCN2c2nc(Cl)ncc2C)cc1Br (stereo not shown) [compound 234] | F (F represents a maximal response of > 60%) | > 2.1 | F (F represents a maximal response of > 60%) |  | > 2.1 |  |  |  |
| Fc1ccc(C2CCCCN2c2nc(Cl)ncc2F)cc1C(F)F (stereo not shown) [compound 299] | F (F represents a maximal response of > 60%) | 0.7 to 2.1 | F (F represents a maximal response of > 60%) |  | < 0.7 |  |  |  |
| Fc1ccc(C2CCCCN2c2nc(Cl)ncc2F)cc1Br (stereo not shown) [compound 124] | F (F represents a maximal response of > 60%) | < 0.7 | E (E represents a maximal response of 40-60%) |  | < 0.7 |  |  |  |
| COC(=O)c1cc(C2CCCCN2S(=O)(=O)c2ccc(Cl)cc2)ccn1 (racemic) [compound 81] | E (E represents a maximal response of 40-60%) | > 2.1 | D (D represents a maximal response of < 40%) | > 2.1 |  |  |  |  |
| Fc1cnccc1C1CCCCN1c1nc(Cl)ncc1F (stereo not shown) [compound 375] | D (D represents a maximal response of < 40%) | < 0.7 | D (D represents a maximal response of < 40%) |  | < 0.7 |  |  |  |
| CC(C)(O)C(=O)N1CCN(c2nc(Cl)ncc2F)C(c2cc(F)cc(C(F)(F)F)c2)C1 (racemic) [Compound 307] | D (D represents a maximal response of < 40%) | > 2.1 | F (F represents a maximal response of > 60%) | > 2.1 |  |  |  |  |
| FC(F)(F)c1cccc(C2CCCCN2Cc2cccc(Br)c2)n1 (stereo not shown) [compound 173] | F (F represents a maximal response of > 60%) | < 0.7 | F (F represents a maximal response of > 60%) |  | < 0.7 |  |  |  |
| COc1ccc(C2C(F)CCCN2S(=O)(=O)c2ccc(Cl)cc2)cc1Br (stereo not shown) [compound 219] | F (F represents a maximal response of > 60%) | 0.7 to 2.1 | F (F represents a maximal response of > 60%) |  | < 0.7 | low positive allosteric activity | preferential signaling via cAMP over β-arrestin | high positive allosteric activity |
| Fc1ccc(C2CCCCN2Cc2ccnc(Cl)c2)cc1Cl (stereo not shown) [compound 174] | F (F represents a maximal response of > 60%) | 0.7 to 2.1 | E (E represents a maximal response of 40-60%) |  | 0.7 to 2.1 |  |  |  |
